Experimental data from patent EP0819380A1, “Bacteriocidal, antibacterial and bacteriostatic composition” (priority 1996, dated 1998).
Read-outs that look alike come from different tables or passages of the source.

Legend:
[1] = system: herpes simplex I (HSV-1, strain VRIII); assay: Inactivation of herpes simplex I (viral infectivity titer, CPE in Vero cells); format: cell-based; settings: for Viral infectivity titer when contacted for an hour (TCID50/25 µl): room temperature, composition 0.5% butyl p-oxybenzoate
[2] = system: influenza virus type B (FluV-B, strain B/Lee/40); format: cell-based
[3] = system: mice; settings: p.o.; cited from earlier work
[4] = system: Type HIV-1 (LAI strain); assay: Inactivation of HIV (infectivity titer in MT-4 cells); format: cell-based; settings: summary of Table 6, concentration-dependent
[5] = Composition : Viral solution 1 : 4, 1 hour
[6] = Composition : Viral solution 1 : 9, 1 hour
[7] = Composition : Viral solution 1 : 99, 1 hour
[8] = mixing ratio 1:9, Contact Time 0 minute
[9] = mixing ratio 1:9, Contact Time 5 minutes
[10] = mixing ratio 1:9, Contact Time 15 minutes
[11] = mixing ratio 1:9, Contact Time 30 minutes
[12] = mixing ratio 1:9, Contact Time 1 hour

Compound | Viral infectivity titer when contacted for an hour (TCID50/25 µl) [1, 5] | Viral infectivity titer when contacted for an hour (TCID50/25 µl) [1, 6] | Viral infectivity titer when contacted for an hour (TCID50/25 µl) [1, 7] | Viral infectivity titer for various contact time periods (TCID50/25 µl) [1, 8] | Viral infectivity titer for various contact time periods (TCID50/25 µl) [1, 9] | Viral infectivity titer for various contact time periods (TCID50/25 µl) [1, 10] | Viral infectivity titer for various contact time periods (TCID50/25 µl) [1, 11] | Viral infectivity titer for various contact time periods (TCID50/25 µl) [1, 12] | Viral infectivity titer for various contact time periods (TCID50/25 µl) ([2]; 0.5 h) | Viral infectivity titer for various contact time periods (TCID50/25 µl) ([2]; 1 h) | Viral infectivity titer when contacted for an hour (TCID50/25 µl) ([2]; 1 h) | Viral infectivity titer when contacted for an hour (TCID50/25 µl) ([2]; FluV-B, Composition : Viral solution 1 : 99, 1 hour, room temperature, composition 0.5% butyl p-oxybenzoate) | Acute toxicity (LD-50) [3] [mg/kg] | inactivation effect against HIV [4]
CCO [70% Ethanol, Ethanol, reference compound] | 3.2 x 10^4 TCID50/25 µl | 5.6 x 10^4 TCID50/25 µl | 1.0 x 10^5 TCID50/25 µl | 3.2 x 10^4 TCID50/25 µl | 3.2 x 10^4 TCID50/25 µl | 1.8 x 10^4 TCID50/25 µl | 1.8 x 10^3 TCID50/25 µl | 5.6 x 10^4 TCID50/25 µl | 3.2 x 10^3 TCID50/25 µl | 5.6 x 10^3 TCID50/25 µl | 3.2 x 10^3 TCID50/25 µl |  |  | 
CCCCOC(=O)c1ccc(O)cc1 [butyl ester, butyl p-oxybenzoate] | ≤3.2 x 10^1 TCID50/25 µl | ≤3.2 x 10^0 TCID50/25 µl | 1.8 x 10^4 TCID50/25 µl | 5.6 x 10^3 TCID50/25 µl | 3.2 x 10^0 TCID50/25 µl | 3.2 x 10^0 TCID50/25 µl | 3.2 x 10^0 TCID50/25 µl | 3.2 x 10^0 TCID50/25 µl |  |  |  | 3.2 x 10^3 TCID50/25 µl | 17000 | 
CCOC(=O)c1ccc(O)cc1 [ethyl ester, ethyl p-oxybenzoate] |  |  |  |  |  |  |  |  |  |  |  |  | 5000 | potent inactivation effect
CCCOC(=O)c1ccc(O)cc1 [propyl ester, Propyl p-oxybenzoate] |  |  |  |  |  |  |  |  |  |  |  |  | 8000 | 
